Here are results for 30 compounds from US20230019236A1, “PROTEIN TYROSINE PHOSPHATASE INHIBITORS AND METHODS OF USE THEREOF” (Calico Life Sciences LLC, priority 2019, published 2023).

pIC50: −log10 of the molar value.

The assay deals with T1, His tagged full-length PTP1B protein (Homo sapiens, UniProt P18031).
T1 construct: made in house
T1 sequence (P18031 with tags, fused parts or gaps): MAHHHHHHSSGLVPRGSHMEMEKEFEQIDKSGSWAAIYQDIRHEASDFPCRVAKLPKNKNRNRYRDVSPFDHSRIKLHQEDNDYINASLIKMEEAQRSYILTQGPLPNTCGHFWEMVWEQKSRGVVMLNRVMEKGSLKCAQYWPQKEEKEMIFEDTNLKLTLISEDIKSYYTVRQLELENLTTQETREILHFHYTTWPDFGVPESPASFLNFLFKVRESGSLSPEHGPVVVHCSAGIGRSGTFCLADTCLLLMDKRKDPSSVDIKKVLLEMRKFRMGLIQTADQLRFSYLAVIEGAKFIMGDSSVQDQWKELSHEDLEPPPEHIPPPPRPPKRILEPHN
The assay can be described thus: Mobility Shift Assay (MSA) used to determine potency of PTP1B inhibitors. It counts as biochemical. Conditions: Table 2. How it is done:
The enzymatic assay used to determine activity is a mobility shift assay using a LabChip EZ Reader by Caliper Life Sciences. The enzymatic reaction was carried out in assay buffer (50 mM HEPES pH 7.5, 1 mM EGTA, 10 mM EDTA, 0.01% Tween® 20, and 2 mM DTT). […] The enzyme (at 0.5 nM) was incubated with compound for 10 minutes at room temperature. […] The % inhibition was then used to calculate the IC50 values.
In the case of `COc1ccc2c(F)c(O)c(N3CC(=O)NS3(=O)=O)c(F)c2c1` [Compound 117, 5-(1,4-difluoro-3-hydroxy-7-methoxynaphthalen-2-yl)-1λ^6,2,5-thiadiazolidine-1,1,3-trione], the pIC50 (as a rule, the negative decadic logarithm of the IC50, by convention in mol/L) was 8.00 to 9.00. As for `COCCCOc1ccc2cc(O)c(N3CC(=O)NS3(=O)=O)c(F)c2c1` [Compound 247, 5-[1-fluoro-3-hydroxy-7-(3-methoxypropoxy)naphthalen-2-yl]-1λ^6,2,5-thiadiazolidine-1,1,3-trione], the pIC50 is 8.00 to 9.00. To `Nc1cccc(CS(=O)(=O)N2CC=C(c3ccc4cc(O)c(N5CC(=O)NS5(=O)=O)c(F)c4c3)C2)c1` [Compound 194, 5-(7-{1-[(3-aminophenyl)methanesulfonyl]-2,5-dihydro-1H-pyrrol-3-yl}-1-fluoro-3-hydroxynaphthalen-2-yl)-1λ^6,2,5-thiadiazolidine-1,1,3-trione] belongs 8.00 to 9.00; to `N#CC1(CNc2ccc3cc(O)c(N4CC(=O)NS4(=O)=O)c(F)c3c2)CC1` [Compound 181, 1-({[8-fluoro-6-hydroxy-7-(1,1,4-trioxo-1λ^6,2,5-thiadiazolidin-2-yl)naphthalen-2-yl]amino}methyl)cyclopropane-1-carbonitrile], 8.00 to 9.00; to `O=C1CN(c2c(O)cc3ccc(C4=CCOCC4)cc3c2F)S(=O)(=O)N1` [Compound 264, 5-[7-(3,6-dihydro-2H-pyran-4-yl)-1-fluoro-3-hydroxynaphthalen-2-yl]-1λ^6,2,5-thiadiazolidine-1,1,3-trione], 7.00 to 8.00. Turning to `N#CCCCOc1ccc2cc(O)c(N3CC(=O)NS3(=O)=O)c(F)c2c1` [Compound 129, 4-{[8-fluoro-6-hydroxy-7-(1,1,4-trioxo-1λ^6,2,5-thiadiazolidin-2-yl)naphthalen-2-yl]oxy}butanenitrile], the pIC50 was greater than 9.00.

On to `O=C1CN(c2c(O)cc3ccc(OCCO)cc3c2F)S(=O)(=O)N1` [Compound 277, 5-[1-fluoro-3-hydroxy-7-(2-hydroxyethoxy)naphthalen-2-yl]-1λ^6,2,5-thiadiazolidine-1,1,3-trione], for which the pIC50 was less than 7.00. To `O=C1CN(c2c(O)cc3ccc(C4CN(C(=O)C5CC5)C4)cc3c2F)S(=O)(=O)N1` [Compound 207, 5-{7-[1-(cyclopropanecarbonyl)azetidin-3-yl]-1-fluoro-3-hydroxynaphthalen-2-yl}-1λ^6,2,5-thiadiazolidine-1,1,3-trione] belongs 8.00 to 9.00; to `O=C1CN(c2c(O)cc3ccc(NCCN4CCC4)cc3c2F)S(=O)(=O)N1` [Compound 177, 5-(7-{[2-(azetidin-1-yl)ethyl]amino}-1-fluoro-3-hydroxynaphthalen-2-yl)-1λ^6,2,5-thiadiazolidine-1,1,3-trione], less than 7.00. For `O=C1CN(c2c(O)cc3ccc(OCCn4cccn4)cc3c2F)S(=O)(=O)N1` [Compound 188, 5-{1-fluoro-3-hydroxy-7-[2-(1H-pyrazol-1-yl)ethoxy]naphthalen-2-yl}-1λ^6,2,5-thiadiazolidine-1,1,3-trione], the pIC50 was 8.00 to 9.00. On to `N#CCc1ccc2cc(O)c(N3CC(=O)NS3(=O)=O)c(F)c2c1` [Compound 228, [8-fluoro-6-hydroxy-7-(1,1,4-trioxo-1λ^6,2,5-thiadiazolidin-2-yl)naphthalen-2-yl]acetonitrile], for which the pIC50 was 7.00 to 8.00. With `Cc1nn(C)cc1S(=O)(=O)N1CC=C(c2ccc3cc(O)c(N4CC(=O)NS4(=O)=O)c(F)c3c2)C1` [Compound 310, 5-{7-[1-(1,3-dimethyl-1H-pyrazole-4-sulfonyl)-2,5-dihydro-1H-pyrrol-3-yl]-1-fluoro-3-hydroxynaphthalen-2-yl}-1λ^6,2,5-thiadiazolidine-1,1,3-trione] the figure was 8.00 to 9.00; with `O=C1CN(c2c(O)cc3ccc(OC4COC4)cc3c2F)S(=O)(=O)N1` [Compound 274, 5-{1-fluoro-3-hydroxy-7-[(oxetan-3-yl)oxy]naphthalen-2-yl}-1λ^6,2,5-thiadiazolidine-1,1,3-trione], 8.00 to 9.00; with `CCNCCOc1ccc2cc(O)c(N3CC(=O)NS3(=O)=O)c(F)c2c1` [Compound 144, 5-{7-[2-(ethylamino)ethoxy]-1-fluoro-3-hydroxynaphthalen-2-yl}-1λ^6,2,5-thiadiazolidine-1,1,3-trione], 7.00 to 8.00. `O=C1CN(c2c(O)cc3ccc(C4=CCN(CC5CC5)C4)cc3c2F)S(=O)(=O)N1` [Compound 242, 5-{7-[1-(cyclopropylmethyl)-2,5-dihydro-1H-pyrrol-3-yl]-1-fluoro-3-hydroxynaphthalen-2-yl}-1λ^6,2,5-thiadiazolidine-1,1,3-trione]: the pIC50 was 8.00 to 9.00. Turning to `O=C1CN(c2c(O)cc3ccc(C4=CCN(S(=O)(=O)c5ccsc5)C4)cc3c2F)S(=O)(=O)N1` [Compound 314, 5-{1-fluoro-3-hydroxy-7-[1-(thiophene-3-sulfonyl)-2,5-dihydro-1H-pyrrol-3-yl]naphthalen-2-yl}-1λ^6,2,5-thiadiazolidine-1,1,3-trione], the pIC50 was greater than 9.00. To `C=C(c1ccc2cc(O)c(N3CC(=O)NS3(=O)=O)c(F)c2c1)c1c(C)c(C)c(C)c(C)c1C` [Compound 241, 5-{1-fluoro-3-hydroxy-7-[1-(pentamethylphenyl)ethenyl]naphthalen-2-yl}-1λ^6,2,5-thiadiazolidine-1,1,3-trione] belongs less than 7.00; to `N#CC1(CCOc2ccc3cc(O)c(N4CC(=O)NS4(=O)=O)c(F)c3c2)CC1` [Compound 159, 1-(2-{[8-fluoro-6-hydroxy-7-(1,1,4-trioxo-1λ^6,2,5-thiadiazolidin-2-yl)naphthalen-2-yl]oxy}ethyl)cyclopropane-1-carbonitrile], 8.00 to 9.00; to `CC(C)NCCOc1ccc2cc(O)c(N3CC(=O)NS3(=O)=O)c(F)c2c1` [Compound 145, 5-(1-fluoro-3-hydroxy-7-{2-[(propan-2-yl)amino]ethoxy}naphthalen-2-yl)-1λ^6,2,5-thiadiazolidine-1,1,3-trione], 7.00 to 8.00. With `O=C1CN(c2c(O)cc3ccc(NCCCC(F)(F)F)cc3c2F)S(=O)(=O)N1` [Compound 166, 5-{1-fluoro-3-hydroxy-7-[(4,4,4-trifluorobutyl)amino]naphthalen-2-yl}-1λ^6,2,5-thiadiazolidine-1,1,3-trione] the figure was less than 7.00; with `CC(C)CS(=O)(=O)N1CC=C(c2ccc3cc(O)c(N4CC(=O)NS4(=O)=O)c(F)c3c2)C1` [Compound 300, 5-{1-fluoro-3-hydroxy-7-[1-(2-methylpropane-1-sulfonyl)-2,5-dihydro-1H-pyrrol-3-yl]naphthalen-2-yl}-1λ^6,2,5-thiadiazolidine-1,1,3-trione], greater than 9.00; with `CC(C)CCS(=O)(=O)N1CC=C(c2ccc3cc(O)c(N4CC(=O)NS4(=O)=O)c(F)c3c2)C1` [Compound 313, 5-{1-fluoro-3-hydroxy-7-[1-(3-methylbutane-1-sulfonyl)-2,5-dihydro-1H-pyrrol-3-yl]naphthalen-2-yl}-1λ^6,2,5-thiadiazolidine-1,1,3-trione], greater than 9.00. To `O=C1CN(c2c(O)cc3ccc(C(F)F)cc3c2F)S(=O)(=O)N1` [Compound 167, 5-[7-(difluoromethyl)-1-fluoro-3-hydroxynaphthalen-2-yl]-1λ^6,2,5-thiadiazolidine-1,1,3-trione] belongs less than 7.00. In the case of `CC1(COc2ccc3cc(O)c(N4CC(=O)NS4(=O)=O)c(F)c3c2)COC1` [Compound 230, 5-{1-fluoro-3-hydroxy-7-[(3-methyloxetan-3-yl)methoxy]naphthalen-2-yl}-1λ^6,2,5-thiadiazolidine-1,1,3-trione], the pIC50 is less than 7.00. `CCS(=O)(=O)NCCOc1ccc2cc(O)c(N3CC(=O)NS3(=O)=O)c(F)c2c1` [Compound 311, N-(2-{[8-fluoro-6-hydroxy-7-(1,1,4-trioxo-1λ^6,2,5-thiadiazolidin-2-yl)naphthalen-2-yl]oxy}ethyl)ethanesulfonamide]: the pIC50 was 8.00 to 9.00. Take `C[C@@H](O)CCCc1ccc2cc(O)c(N3CC(=O)NS3(=O)=O)c(F)c2c1` [Compound 151, 5-{1-fluoro-3-hydroxy-7-[(4R)-4-hydroxypentyl]naphthalen-2-yl}-1λ^6,2,5-thiadiazolidine-1,1,3-trione]: the pIC50 is 8.00 to 9.00. With `COC/C=C/c1ccc2cc(O)c(N3CC(=O)NS3(=O)=O)c(F)c2c1` [Compound 245, 5-{1-fluoro-3-hydroxy-7-[(1E)-3-methoxyprop-1-en-1-yl]naphthalen-2-yl}-1λ^6,2,5-thiadiazolidine-1,1,3-trione] the figure was 8.00 to 9.00. Turning to `O=C1CN(c2c(O)cc3ccc(-c4cccnc4)cc3c2F)S(=O)(=O)N1` [Compound 266, 5-[1-fluoro-3-hydroxy-7-(pyridin-3-yl)naphthalen-2-yl]-1λ^6,2,5-thiadiazolidine-1,1,3-trione], the pIC50 was less than 7.00. For the compound `COC(C)(C)CCOc1ccc2cc(O)c(N3CC(=O)NS3(=O)=O)c(F)c2c1` [Compound 170, 5-[1-fluoro-3-hydroxy-7-(3-methoxy-3-methylbutoxy)naphthalen-2-yl]-1λ^6,2,5-thiadiazolidine-1,1,3-trione], the pIC50 was 8.00 to 9.00.

For the compound `N#C/C=C/c1ccc2cc(O)c(N3CC(=O)NS3(=O)=O)c(F)c2c1` [Compound 208, (2E)-3-[8-fluoro-6-hydroxy-7-(1,1,4-trioxo-1λ^6,2,5-thiadiazolidin-2-yl)naphthalen-2-yl]prop-2-enenitrile], the pIC50 was less than 7.00.
